The values below come from ChEMBL document CHEMBL1154360, “Cytotoxic and PTP1B inhibitory activities from Erythrina abyssinica” (Bioorg Med Chem Lett, 2009).

Assay [1] deals with T1, Tyrosine-protein phosphatase non-receptor type 1 (Homo sapiens, UniProt P18031).
T1 sequence (P18031 whole entry): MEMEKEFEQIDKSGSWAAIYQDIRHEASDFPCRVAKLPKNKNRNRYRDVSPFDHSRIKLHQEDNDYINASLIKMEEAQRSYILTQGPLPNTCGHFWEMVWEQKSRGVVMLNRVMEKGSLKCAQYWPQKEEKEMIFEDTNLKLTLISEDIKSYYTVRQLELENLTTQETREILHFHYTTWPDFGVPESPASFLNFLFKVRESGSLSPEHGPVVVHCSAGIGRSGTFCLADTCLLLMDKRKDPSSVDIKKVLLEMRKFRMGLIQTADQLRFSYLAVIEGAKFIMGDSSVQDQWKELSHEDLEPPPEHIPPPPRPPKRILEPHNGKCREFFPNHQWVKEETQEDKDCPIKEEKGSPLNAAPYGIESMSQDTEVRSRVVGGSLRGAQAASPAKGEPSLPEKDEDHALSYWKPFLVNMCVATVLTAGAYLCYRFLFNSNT
As to the kind of experiment: Inhibition of human recombinant PTP1B assessed as p-nitrophenol production.

Assay [2] concerns MCF7. Put plainly: Cytotoxicity against human MCF7 cells by WST-1 assay. It counts as functional, cell-based. (In general: Formazan colour is commonly taken as a measure of viable cells.)
For assay [3], the system named is MCF7. Put plainly: Cytotoxicity against human tamoxifen-resistant MCF7 cells by WST-1 assay. It counts as functional, cell-based.
For assay [4], the system named is MCF7. As to the kind of experiment: Cytotoxicity against human adriamycin- resistant MCF7 cells by WST-1 assay. It counts as functional, cell-based.
A further assay relates to MDA-MB-231. Put plainly: Cytotoxicity against human MDA-MB-231 cells by WST-1 assay. It counts as functional, cell-based.

A word on the IC50: it is the concentration that gives 50% inhibition.

In the case of `COc1cc2c(cc1O)O[C@H]1c3cc(CC=C(C)C)c(OC)cc3OC[C@@H]21` [ERYTHRIBYSSIN C], the IC50 (in assay [1]; in the assay on MCF7 [2]; in the assay on MCF7 [3]; in the assay on MCF7 [4]; in the assay on MDA-MB-231) was above 30 µM in each case.

Take `CC(C)=CCc1c(O)ccc2c1OC[C@H]1c3ccc(O)cc3O[C@@H]21`: the IC50 is 19.5 µM in assay [1]; above 30 µM with MCF7 [2]; above 30 µM in the assay with MCF7 [3]; above 30 µM in the assay on MCF7 [4]; above 30 µM with MDA-MB-231.

Consider `CC(C)=CCc1cc2c(cc1O)O[C@H]1c3ccc(O)cc3OC[C@@H]21` [SOPHORAPTEROCARPAN A], for which the IC50 (in assay [1]; in the assay on MCF7 [2]; in the assay on MCF7 [3]; in the assay on MCF7 [4]; with MDA-MB-231) was above 30 µM each time.

Regarding `CCCCCCCCCCCCCCCC(=O)C1=C(O)[C@@H](CO)OC1=O`, the IC50 with MCF7 [2], with MCF7 [3], in the assay on MCF7 [4] and in the assay on MDA-MB-231 was above 30 µM in each case.

On to `CC(C)=CCc1c(O)ccc2c1OC[C@H]1c3ccc4c(c3O[C@@H]21)C=CC(C)(C)O4` [ERYBREADIN B], for which the IC50 in assay [1] is 4.2 µM; in the assay on MCF7 [2] it was 11.8 µM; with MCF7 [3] it was 6.2 µM; with MCF7 [4] it was 5.6 µM; in the assay on MDA-MB-231, 7.7 µM.

On to `CC(C)=CCc1cc2c(cc1O)OC[C@H]1c3ccc(O)c(CC=C(C)C)c3O[C@@H]21` [ERYBRAEDIN C], for which the IC50 (in assay [1]; in the assay with MCF7 [2]; in the assay with MCF7 [3]; with MCF7 [4]; in the assay on MDA-MB-231) was above 30 µM throughout.

In the case of `CC(C)=CCc1c(O)ccc2c1OC[C@H]1c3ccc4c(c3O[C@@H]21)OC(C)(C)C=C4` [ERYBREADIN D], the IC50 in assay [1] was 6.4 µM; in the assay with MCF7 [3] it was 7.8 µM; in the assay on MCF7 [4] it was 12.7 µM.

With `CC(C)=CCc1cc2c(cc1O)OC[C@@]1(O)c3ccc4c(c3O[C@@H]21)C=CC(C)(C)O4` [ERYSUBIN E], the IC50 is 8.8 µM in assay [1]; above 30 µM in the assay on MCF7 [2]; above 30 µM in the assay with MCF7 [3]; above 30 µM with MCF7 [4]; above 30 µM in the assay on MDA-MB-231.

Turning to `COc1cc2c(cc1O)O[C@H]1c3cc(CC=C(C)C)c(O)cc3OC[C@@H]21` [ERYVARIN K], the IC50 (in assay [1]; in the assay with MCF7 [2]; in the assay with MCF7 [3]; in the assay with MCF7 [4]; in the assay on MDA-MB-231) was above 30 µM throughout.

Regarding `CC(C)=CCc1c(O)ccc2c1O[C@H]1c3ccc(O)cc3OC[C@@H]21` [PHASEOLLIDIN], the IC50 (in assay [1]; in the assay on MCF7 [2]; in the assay with MCF7 [3]; with MCF7 [4]; with MDA-MB-231) was above 30 µM each time.

Turning to `COc1ccc2c(c1CC=C(C)C)O[C@H]1c3cc(CC=C(C)C)c(O)cc3OC[C@@]21O` [ERYSTAGALLIN A], the IC50 in assay [1] is 20.8 µM; in the assay with MCF7 [2], above 30 µM; in the assay with MCF7 [3], above 30 µM; in the assay with MCF7 [4], above 30 µM; with MDA-MB-231, above 30 µM.

With `CC1(C)C=Cc2cc3c(cc2O1)OC[C@H]1c2ccc(O)cc2O[C@@H]31` [NEORAUTENOL], the IC50 was 7.6 µM in assay [1]; above 30 µM in the assay on MCF7 [2]; above 30 µM in the assay on MCF7 [3]; above 30 µM in the assay on MCF7 [4]; above 30 µM with MDA-MB-231.

With `COc1ccc2c(c1CC=C(C)C)O[C@H]1c3ccc(O)cc3OC[C@@]21OC` [ERYTHRIBYSSIN A], the IC50 stood at 19.3 µM in assay [1]; 19.4 µM with MCF7 [2]; 12 µM in the assay with MCF7 [3]; 16.1 µM in the assay with MCF7 [4]; 28 µM with MDA-MB-231.

Turning to `CC(C)=CCc1cc2c(cc1O)OC[C@H]1c3ccc4c(c3O[C@@H]21)C=CC(C)(C)O4` [FOLITENOL], the IC50 in assay [1] came out at 7.8 µM; in the assay with MCF7 [3], 18.8 µM; in the assay with MCF7 [4] it was 10.8 µM; in the assay on MDA-MB-231, 16.7 µM.

With `C[C@H]1[C@H](C)CC[C@]2(C(=O)O)CC[C@]3(C)C(=CC[C@@H]4[C@@]5(C)CC[C@H](O)C(C)(C)[C@@H]5CC[C@]43C)[C@H]12` [URSOLIC ACID], the IC50 with MCF7 [2], in the assay on MCF7 [3], in the assay on MCF7 [4] and in the assay with MDA-MB-231 was above 30 µM in each case.

On to `CC/C(=C(\c1ccccc1)c1ccc(OCCN(C)C)cc1)c1ccccc1` [TAMOXIFEN], for which, in the assay on MCF7 [2], the IC50 was found to be 11.4 µM.

For `CC(C)=CCc1cc2c(cc1O)O[C@H]1c3ccc(O)c(CC=C(C)C)c3OC[C@@H]21` [ERYBREADIN C], the half-maximal inhibitory concentration (IC50) was 7.3 µM in assay [1]; 14.8 µM with MCF7 [2]; 9.1 µM with MCF7 [3]; 20.1 µM in the assay with MCF7 [4]; 22.7 µM in the assay on MDA-MB-231.

`O=Cc1c(O)ccc2c1O[C@H]1c3ccc(O)cc3OC[C@@H]21` [ERYTHRIBYSSIN B]: the IC50 (in assay [1]; in the assay with MCF7 [2]; in the assay with MCF7 [3]; in the assay on MCF7 [4]; with MDA-MB-231) was above 30 µM throughout.
